# Where a name gives a salt, the structure may show the parent alone.
# Target: T1, 5HT2 Receptors (Rattus norvegicus, UniProt P14842)
# T1 construct: from tissue; host or cells: rat external jugular vein (isolated, male Wistar)
# Experiment: Apparent antagonist dissociation constant (KB) at 5HT2 receptors, serotonin-induced contraction of isolated rat external jugular vein
# Type: cell-based, rat (male Wistar)
# Settings: not given
# Description: Male Wistar rats (about 150-300 gram weight) were killed and their external jugular veins and thoracic aortas dissected free of connective tissue, cannulated in situ and placed in a modified Krebs' bicarbonate buffer in a suitable tissue bath. Two L-shaped 30-gauge stainless-steel hypodermic needles were inserted in each cannula and the dissected vessels gently pushed onto the needles. One needle was attached with thread to a stationary glass rod and the other to the transducer. [The procedure employed was that described by Hooker, Calkins and Fleisch, Blood Vessels, 14, 1, (1977) for use with circular smooth muscle preparations.]
# The modified Krebs' bicarbonate buffer was composed of the following (concentrations in millimoles): sodium chloride, 118.2; potassium chloride, 4.6; calcium chloride dihydrate, 1.6; potassium dihydrogenphosphate, 1.2; magnesium sulfate, 1.2; dextrose, 10.0; sodium bicarbonate, 24.8; and water q.s. to 1000 g. The tissue baths were maintained at 37° C. and were aerated with 95% oxygen: 5% carbon dioxide (v:v). An initial optimum resting force of 1 g and 4 g was applied to the jugular vein and aorta, respectively. Isometric contractions were recorded as changes in grams of force on a Beckman Dynograph with Statham UC-3 transducers and microscale accessory attachment. Tissues were allowed to equilibrate 1 to 2 hours before exposure to drugs. Control responses to serotonin in the jugular vein and to norepinephrine in the aorta were obtained. The vessels were then incubated with appropriate concentrations of the test compound for one hour. Responses to serotonin or to norepinephrine were then repeated in the presence of the test compound. Contraction to serotonin was evaluated in the jugular vein since this tissue produces marked responses to serotonin in the absence of alpha receptors. See Cohen and Wiley, J. Pharm. Exp. Ther., 205, 400 (1978). Alpha receptor antagonist activity was evaluated in the aorta.
# Apparent antagonist dissociation constants were determined for each concentration of the test compound according to the following equation: [formula] wherein [B] is the concentration of the antagonist and the dose ratio is the ED50 of the agonist in the presence of the antagonist divided by the control ED50. […] The -log KB values obtained for representative sensitive compounds of this invention and are given below in Table 1. ln the Table, column I provides the Example Number of the compound evaluated in the screen; columns 2-6, the identity of the compound evaluated in the screen when taken with the structure provided; and column 7, the apparent dissociation constant for the test compound.
# T1 sequence (P14842 whole entry): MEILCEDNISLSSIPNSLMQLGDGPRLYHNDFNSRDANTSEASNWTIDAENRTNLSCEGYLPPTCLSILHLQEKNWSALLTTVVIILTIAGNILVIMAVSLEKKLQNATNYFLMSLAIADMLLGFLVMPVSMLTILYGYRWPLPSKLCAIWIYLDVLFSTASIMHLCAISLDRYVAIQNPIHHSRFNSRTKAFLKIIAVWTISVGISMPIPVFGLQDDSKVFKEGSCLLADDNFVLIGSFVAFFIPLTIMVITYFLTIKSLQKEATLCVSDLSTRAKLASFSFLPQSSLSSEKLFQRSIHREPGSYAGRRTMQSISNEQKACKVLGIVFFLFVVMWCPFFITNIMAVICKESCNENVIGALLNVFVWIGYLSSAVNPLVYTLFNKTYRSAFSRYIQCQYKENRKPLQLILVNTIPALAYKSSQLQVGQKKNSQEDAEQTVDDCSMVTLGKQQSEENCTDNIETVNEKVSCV
row,SMILES,Kb [nM]
1,"CCn1cc2c3c(cccc31)[C@H]1C[C@@H](C(=O)NC3CCCCC3)CN(C)[C@@H]1C2 [Example 10, (8β)-N-Cyclohexyl-1-ethyl-6-methylergoline-8-carboxamide]",0.562
2,"CC(C)n1cc2c3c(cccc31)[C@H]1C[C@@H](C(=O)NC3CCCC3)CN(C)[C@@H]1C2 [Example 9, (8β)-N-Cyclopentyl-1-isopropyl-6-methylergoline-8-carboxamide]",0.0468
3,"CC(C)n1cc2c3c(cccc31)[C@H]1C[C@@H](C(=O)NC3CCCCC3O)CN(C)[C@@H]1C2 (stereo partly drawn) [Example 14, (8β)-N-(2-Hydroxycyclohexyl)-1-isopropyl-6-methylergoline-8-carboxamide]",0.0275
4,"CCn1cc2c3c(cccc31)[C@H]1C[C@@H](C(=O)N[C@H]3CC[C@@H](OC)CC3)CN(C)[C@@H]1C2 [Example 7, (8β)-cis-N-(4-Methoxycyclohexyl)-1-ethyl-6-methylergoline-8-carboxamide maleate]",0.229
5,"CC(C)n1cc2c3c(cccc31)[C@H]1C[C@@H](C(=O)NC3CCCCCC3)CN(C)[C@@H]1C2 [Example 12, (8β)-N-Cycloheptyl-1-isopropyl-6-methylergoline-8-carboxamide]",1.05
6,"CN1C[C@H](C(=O)NC2CCCCC2)C[C@@H]2c3cccc4c3c(cn4C)C[C@H]21 [Example 8, (8β)-N-Cyclohexyl-1,6-dimethylergoline-8carboxamide]",0.2
7,"CO[C@H]1CC[C@@H](NC(=O)[C@@H]2C[C@@H]3c4cccc5c4c(cn5C)C[C@H]3N(C)C2)CC1 [Example 6, (8β)-cis-N-(4-Methoxycyclohexyl)-1,6-dimethylergoline-8-carboxamide maleate]",0.269
8,"CCCN1C[C@H](C(=O)NC2CCCCC2)C[C@@H]2c3cccc4c3c(cn4C(C)C)C[C@H]21 [Example 3, (8β)-N-Cyclohexyl-1-isopropyl-6-n-propylergoline-8-carboxamide]",0.794
9,"CC1CCC(NC(=O)[C@@H]2C[C@@H]3c4cccc5c4c(cn5C(C)C)C[C@H]3N(C)C2)CC1 (stereo partly drawn) [Example 13, (8β)-N-(4-Methylcyclohexyl)-1-isopropyl-6-methylergoline-8-carboxamide]",6.46
10,"CO[C@H]1CC[C@H](NC(=O)[C@@H]2C[C@@H]3c4cccc5c4c(cn5C(C)C)C[C@H]3N(C)C2)CC1 (relative stereo) [Example 5, (8β)-trans-N-(4-Methoxycyclohexyl)-1-isopropyl-6-methylergoline-8-carboxamide]",0.186

# Same assay, conditions: rat external jugular vein, antagonism of serotonin contraction, 1 h incubation, 37° C; read-out: 5HT2 -Log KB (apparent dissociation constant) (converted)
row,SMILES,Kb [nM]
1,"CO[C@H]1CC[C@@H](NC(=O)[C@@H]2C[C@@H]3c4cccc5c4c(cn5C(C)C)C[C@H]3N(C)C2)CC1 [Example 4, (8β)-cis-N-(4-Methoxycyclohexyl)-1-isopropyl-methylergoline-8-carboxamide]",0.186
2,"CC(C)n1cc2c3c(cccc31)[C@H]1C[C@@H](C(=O)N[C@H]3CC[C@H](O)CC3)CN(C)[C@@H]1C2 [Example 11, (8β)-trans-N-(4-Hydroxycyclohexyl)-1-isopropyl-methylergoline-8-carboxamide]",6.46
3,"CC(C)n1cc2c3c(cccc31)[C@H]1C[C@@H](C(=O)N(C)C3CCCCC3)CN(C)[C@@H]1C2 [Example 2, (8β-N-Cyclohexyl-N-methyl-1-isopropyl-6-methylergoline-8-carboxamide maleate]",1
